Source: publication PMC7571068, “Antiproliferative and Pro-Apoptotic Effect of Uvaol in Human Hepatocarcinoma HepG2 Cells by Affecting G0/G1 Cell Cycle Arrest, ROS Production and AKT/PI3K Signaling Pathway” (Molecules, 2020)
≈ marks a conversion by molar mass, not a printed value.

Legend:
[1] = test system: HepG2 cells; assay: Muse Annexin V & Dead Cell apoptosis assay; assay type: cell-based, human; conditions: HepG2, staurosporine 1 μg/mL (positive control)
Method: (§1) A total of 1.5 × 10^5 cells were seeded per well in 24-well plates for each cell line (quadruplicates for three different populations of each cell line). […] Negative control populations were incubated only with the appropriate culture medium. The samples were analyzed in the Muse^TM Cell Analyzer (Merck-Millipore®, Burlington, MA, USA). Phosphatidylserine (PS) is a phospholipid that is usually found in the inner half of the cytoplasmic membrane, but is outsourced when loss of integrity occurs in the apoptosis process. The method is based on the recognition and binding to the PS exposed by annexin V protein, labeled with a fluorescent substance to detect the interaction and quantify it. We used the Muse^TM Annexin V & Dead Cell kit purchased from Millipore (Billerica, MA, USA), which provides the percentage of viable cells, apoptotic and affected by necrosis.

[2] = test system: WRL68 cells; assay: Muse Annexin V & Dead Cell apoptosis assay; assay type: cell-based, human; conditions: WRL68, staurosporine 1 μg/mL (positive control)
Method: as §1

[3] = test system: HepG2 cells; parameters: method as in PMID 26370984; conditions: HepG2, 72 h; cited from earlier work
[4] = test system: HepG2 line; parameters: method as in PMID 26151733; conditions: HepG2, 22.11 μg/mL, same phase = G0/G1; cited from earlier work

CN[C@@H]1C[C@H]2O[C@@](C)([C@@H]1OC)n1c3ccccc3c3c4c(c5c6ccccc6n2c5c31)C(=O)NC4 [staurosporine, reference compound]
change in apoptotic cells vs control [1]: did not lead to an increase in apoptotic cells
change in number of apoptotic and necrotic cells vs control [2]: equally significant increase
change in number of viable cells vs control [2]: significant decrease

CC1(C)CC[C@]2(C(=O)O)CC[C@]3(C)C(=CC[C@@H]4[C@@]5(C)C[C@@H](O)[C@H](O)C(C)(C)[C@@H]5CC[C@]43C)[C@@H]2C1 [maslinic acid]
IC50 [3]: 47 µg/mL (≈ 99.4 µM)

CC1(C)CC[C@]2(C(=O)O)CC[C@]3(C)C(=CC[C@@H]4[C@@]5(C)CC[C@H](O)C(C)(C)[C@@H]5CC[C@]43C)[C@@H]2C1 [oleanolic acid]
cell cycle arrest [4]: arrest in the same phase of the cycle
